SMILES strings stand for the structures.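 Test compounds were applied to cells in 96-well plates for 48 hours at 5 doses. Here, GI50 denotes the concentration required for 50% inhibition of growth. TGI: concentration producing complete growth inhibition.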 *1 amine or outer side, *2 acyl side, *3 side chain or, on linkers, in order; H or OH if unused. Where a SMILES comes first, the peptide text is derived from it. [ ]: non-standard residue; d: D form. ξ: configuration not given here. X21 = CC[C@@H](C)C(N[*:1])C(=O)[*:2]; ξR = N=C(N)NCCCC(N)C(=O)O; ξI = CCC(C)C(N)C(=O)O; ξL = CC(C)CC(N)C(=O)O; ξK = NCCCCC(N)C(=O)O; ξV = CC(C)C(N)C(=O)O; ξA = CC(N)C(=O)O

Experimental findings from PubChem BioAssay (NCI) are described below.

Test systems include SK-OV-3 ovarian; OVCAR-3 ovarian; HS 578T breast; CAKI-1 renal; HCT-116 colon; HCC-2998 colon; A549 NSCLC; SNB-75 CNS; SK-MEL-2 melanoma; PC-3 prostate.
Common to all, as to assay: inhibition of tumour cell growth, NCI panel, 48 h

`NS(=O)(=O)c1ccc(NC(=O)c2cccc3cc4ccccc4nc23)cc1`: the TGI in the test with SK-OV-3 ovarian, in the test with OVCAR-3 ovarian, in the test with HS 578T breast, in the test on CAKI-1 renal, with HCT-116 colon and with HCC-2998 colon was more than 100 µM throughout. For the same compound, the TGI in the test with A549 NSCLC, with SNB-75 CNS, in the test with SK-MEL-2 melanoma and in the test on PC-3 prostate was more than 100 µM each time.
As for `CCC(C)C1NC(=O)C(CC(C)C)NC(=O)C(C)NC(=O)C(C(C)C)NC(=O)C(CCCCN)NC(=O)C(CC(C)C)NC(=O)C(C(C)C)NC(=O)[C@H](C)NC(=O)C(C(C)CC)NC(=O)C(CCCN=C(N)N)NC(=O)C(CCCCN)NC(=O)C(CCCN=C(N)N)NC(=O)C(CCCCN)NC(=O)C([C@H](C)CC)NC(=O)C(CCCCN)NC1=O` (stereo not given in full) (cyclo(A[ξV][ξL][ξK][ξV][ξA][ξL][ξI][ξK][X21][ξK][ξR][ξK][ξR][ξI])), the GI50 was 1.99 µM in the test with SK-OV-3 ovarian; 1.2 µM in the test with OVCAR-3 ovarian; 1.72 µM in the test on HS 578T breast; 1.38 µM in the test with CAKI-1 renal; 1.35 µM in the test on HCT-116 colon; 1.83 µM in the test on HCC-2998 colon. The GI50 was 1.48 µM in the test with A549 NSCLC, 1.34 µM with SNB-75 CNS, 1.72 µM with SK-MEL-2 melanoma and 0.701 µM in the test on PC-3 prostate. For the same compound, the TGI in the test on SK-OV-3 ovarian stood at 5.94 µM; with OVCAR-3 ovarian, 2.87 µM; in the test with HS 578T breast it was 4.63 µM; with CAKI-1 renal, 3.04 µM; with HCT-116 colon, 2.84 µM; with HCC-2998 colon, 4.22 µM. In addition, the TGI in the test with A549 NSCLC turned out to be 4.41 µM; in the test with SNB-75 CNS, 3.24 µM; in the test with SK-MEL-2 melanoma, 4.09 µM; in the test on PC-3 prostate it was 4.85 µM.
With `CS(=O)(=O)OCCN(CCOS(C)(=O)=O)c1ccc(C=O)cc1`, the TGI with SK-OV-3 ovarian was 7.18 µM; with OVCAR-3 ovarian, 28.5 µM; with HS 578T breast, 58 µM; in the test with CAKI-1 renal it was 2.08 µM; in the test with HCT-116 colon it was more than 100 µM; with HCC-2998 colon it was 8.36 µM. Also, the TGI turned out to be 35.8 µM in the test on A549 NSCLC, 13.1 µM in the test on SNB-75 CNS, 42.8 µM in the test with SK-MEL-2 melanoma and 86 µM in the test with PC-3 prostate.
`O=[N+]([O-])c1ccc2nc3ccccc3cc2c1`: the TGI in the test with SK-OV-3 ovarian was 20.7 µM; in the test on OVCAR-3 ovarian it was 1.3 µM; in the test with HS 578T breast, 27.4 µM; in the test on CAKI-1 renal, 0.0944 µM; in the test with HCT-116 colon it was 10.5 µM; in the test with HCC-2998 colon, 3.12 µM. Also, the TGI with A549 NSCLC was determined as 8.95 µM; in the test with SNB-75 CNS it was 6.53 µM; in the test with SK-MEL-2 melanoma it was 27.8 µM; in the test with PC-3 prostate, 10.2 µM.
For the compound `C=C1C(=O)OC2CC(C)C3C=CC(=O)C3CC12` (stereo not given), the TGI amounted to 33.3 µM with SK-OV-3 ovarian; 13.6 µM in the test on OVCAR-3 ovarian; 6.53 µM in the test with HS 578T breast; 5.47 µM in the test with CAKI-1 renal; 2.7 µM with HCT-116 colon; 16.5 µM in the test with HCC-2998 colon. Besides, the TGI in the test with A549 NSCLC stood at 24 µM; in the test on SNB-75 CNS, 18.5 µM; in the test on SK-MEL-2 melanoma it was 4.49 µM; in the test with PC-3 prostate, 7.17 µM.
As for `Cc1nc(C(N)=S)sc1C(=O)C/C(=N/N)C(=O)Nc1ccc(Cl)cc1`, the TGI in the test with SK-OV-3 ovarian, with OVCAR-3 ovarian, with HS 578T breast, in the test with CAKI-1 renal, in the test on HCT-116 colon and in the test on HCC-2998 colon was more than 100 µM in each case. Besides, the TGI in the test with A549 NSCLC, with SNB-75 CNS, in the test with SK-MEL-2 melanoma and with PC-3 prostate was more than 100 µM each time.
With `CC(C)Nc1ncc2cc(Oc3ccc(F)cc3F)c(=O)n(C)c2n1`, the GI50 was more than 25 µM in the test on SK-OV-3 ovarian; more than 25 µM in the test on OVCAR-3 ovarian; 11.6 µM in the test with HS 578T breast; more than 25 µM with CAKI-1 renal; more than 25 µM in the test on HCT-116 colon; more than 25 µM in the test with HCC-2998 colon. Moreover, the GI50 in the test with A549 NSCLC, in the test with SNB-75 CNS, in the test with SK-MEL-2 melanoma and in the test with PC-3 prostate was more than 25 µM throughout. Besides, the TGI in the test on SK-OV-3 ovarian, in the test with OVCAR-3 ovarian, in the test with HS 578T breast, in the test on CAKI-1 renal, in the test with HCT-116 colon and in the test with HCC-2998 colon was more than 25 µM in each case. Moreover, the TGI in the test on A549 NSCLC, in the test on SNB-75 CNS, in the test on SK-MEL-2 melanoma and in the test with PC-3 prostate was more than 25 µM in each case.
On to `COC1=C(Br)C(=O)C2=C(C1=O)C1C3=C(C(=O)C=CC3=O)C2c2ccccc21` (stereo not given), for which the GI50 in the test on SK-OV-3 ovarian was 45.6 µM; in the test with OVCAR-3 ovarian it was 5.43 µM; in the test on HS 578T breast it was 4.82 µM; in the test with CAKI-1 renal, 15.6 µM; in the test with HCT-116 colon, 5.91 µM; with HCC-2998 colon, 0.565 µM. The GI50 was 42.1 µM with A549 NSCLC, 19.4 µM in the test with SNB-75 CNS, 20.6 µM in the test on SK-MEL-2 melanoma and 4.35 µM with PC-3 prostate. Besides, the TGI was more than 100 µM in the test with SK-OV-3 ovarian; 28.3 µM with OVCAR-3 ovarian; more than 100 µM with HS 578T breast; 38.4 µM in the test with CAKI-1 renal; more than 100 µM with HCT-116 colon; 19.5 µM in the test on HCC-2998 colon. The TGI in the test on A549 NSCLC was more than 100 µM; with SNB-75 CNS, 64.4 µM; with SK-MEL-2 melanoma, 61.2 µM; with PC-3 prostate, 25.6 µM.
On to `CCOC(=O)Nc1nc2c(C)cccc2s1`, for which the GI50 in the test with SK-OV-3 ovarian was more than 100 µM; in the test with OVCAR-3 ovarian, 41.8 µM; in the test on HS 578T breast, 36.1 µM; with CAKI-1 renal, 45.7 µM; with HCT-116 colon, 45.3 µM; in the test with HCC-2998 colon, 64.7 µM. Moreover, the GI50 is 43.9 µM with A549 NSCLC, 30.9 µM in the test on SNB-75 CNS, 85.8 µM in the test with SK-MEL-2 melanoma and 48.9 µM in the test on PC-3 prostate. For the same compound, the TGI in the test on SK-OV-3 ovarian, with OVCAR-3 ovarian, with HS 578T breast, in the test on CAKI-1 renal, in the test on HCT-116 colon and in the test with HCC-2998 colon was more than 100 µM each time. Besides, the TGI with A549 NSCLC, with SNB-75 CNS, in the test with SK-MEL-2 melanoma and in the test with PC-3 prostate was more than 100 µM each time.
